# Data reported in the RepoRT retention time repository.
# Where a name gives a salt, the structure may show the parent alone.
# Assay: RP, Restek Raptor Biphenyl, 100 × 2.1 mm, 2.7 µm, 50 °C, 0.4 mL/min, estimated dead time 0.55 min; A: water + 0.1% formic acid, pH 3; B: methanol + 0.1% formic acid, pH 3; gradient (min/%B) 0/5 1.12/5 6.41/99.5 10.01/99.5
# Conditions: stereoisomer not certain
row,SMILES,LC retention time [min]
1,Cn1c(=O)[nH]c2ncn(C)c2c1=O [PARAXANTHINE],3.54
2,CC(C)CCCCCCCCCCCCCCC(=O)O [Isostearic acid],6.67
3,CC(CCC(=O)NCCS(=O)(=O)O)C1CCC2C3C(O)CC4CC(O)CCC4(C)C3CC(O)C12C (stereo not drawn) [Taurocholic acid sodium salt hydrate],5.83
4,"O=C(O)C(O)c1ccc(O)c(O)c1 (stereo not drawn) [3,4 DIHYDROXYMANDELATE]",0.822
5,O=C(O)CCCCCCCCC(=O)O [SEBACATE],4.87
6,CCCCCCCCCCC[n+]1cccc(S(=O)(=O)[O-])c1 [C11-APS],5.61
7,NC(=O)c1ccc[n+](C2OC(COP(=O)([O-])OP(=O)(O)OCC3OC(n4cnc5c(N)ncnc54)C(OP(=O)(O)O)C3O)C(O)C2O)c1 (stereo not drawn) [NADP],0.746
8,CCCCCCCCCCCCCCC(O)C(=O)O (stereo not drawn) [2-Hydroxyhexadecanoic acid],6.3
9,CCCCCCCCC[n+]1cccc(S(=O)(=O)[O-])c1 [C9-APS],5.13
10,CC(C)CC(O)C(=O)O (stereo not drawn) [2-Hydroxyisocaproic acid],2.76
11,CC(=O)NC(C)C(=O)O (stereo not drawn) [N-ACETYLALANINE],1.05
12,CSCCC(NC(C)=O)C(=O)O (stereo not drawn) [N-ACETYLMETHIONINE],3.04
13,CCCCCCCCCCCCCCCCCC[n+]1cccc(S(=O)(=O)[O-])c1 [C18-APS],6.52
14,CCCCCCCCCCCCCC(=O)OC(CC(=O)[O-])C[N+](C)(C)C [Myristoyl-L-carnitine],5.74
15,C[C@H](CCC(=O)O)[C@H]1CC[C@H]2[C@@H]3CC[C@@H]4CC(=O)CC[C@]4(C)[C@H]3CC[C@]12C [3-Oxo-5β-cholanoic Acid],6.93
16,O=C(O)CCC(=O)O [Succinic acid],0.909
17,CCCCCCCCCCCCCCCCC[n+]1cccc(S(=O)(=O)[O-])c1 [C17-APS],6.44
18,O=[N+]([O-])c1cc(C(F)(F)F)c(Cl)c([N+](=O)[O-])c1Nc1ncc(C(F)(F)F)cc1Cl [Fluazinam],6.33
19,CC12CCC(=O)C=C1CCC1C2C(O)CC2(C)C1CCC2(O)C(=O)CO (stereo not drawn) [CORTISOL],5.49
20,O=C(O)C=Cc1c[nH]c2ccccc12 [3-Indoleacrylic acid],4.71
21,CC(=O)Oc1ccccc1 [PHENYL ACETATE],2.46
22,CCCCCCCCCCCCCCCCCCCCC(=O)O [Heneicosanoic acid],6.82
23,Cc1c(=O)c(=O)c2c3c[nH]c4c(C)c(=O)c(=O)c(c5c[nH]c1c52)c43 [MELANIN],5.67

row,SMILES,LC retention time [min]
1,CCCCCCCCCCCCCCCCCCCCCCC(=O)O [Tricosanoic acid],6.91
2,CCCCCCCCCCCC(=O)OC(CC(=O)[O-])C[N+](C)(C)C [Lauroyl-L-carnitine],5.46
3,CC1=C(C(=O)Nc2ccccc2)SCCO1 [Carboxin],5.79
4,CC(C(=O)O)C(=O)O [Methylmalonic acid],0.96
5,O=C(O)CC(O)CC(=O)O [3-Hydroxyglutaric acid],0.77
6,Nc1ncnc2c1ncn2C1CC(O)C(COP(=O)(O)O)O1 (stereo not drawn) [DEOXYADENOSINE MONOPHOSPHATE],0.818
7,CCCC[n+]1cccc(S(=O)(=O)[O-])c1 [C4-APS],2.67
8,O=C(O)CC(CC(=O)O)C(=O)O [Tricarballylic acid],0.842
9,O=C(O)C(O)c1ccccc1 (stereo not drawn) [MANDELATE],2.98
10,NC(Cc1ccc(O)cc1)C(=O)O (stereo not drawn) [TYROSINE],0.796
11,Nc1nc2c(ncn2C2OC3COP(=O)(O)OC3C2O)c(=O)[nH]1 (stereo not drawn) [CYCLIC GMP],1.14
12,CCCCCCCCCCCCCCCCCC(=O)OC(CC(=O)[O-])C[N+](C)(C)C [Stearoyl-L-carnitine],6.13
13,CCCCCCCCCCCCCCCCCCCCCCCCCCCC(=O)O [Octacosanoic acid],7.08
14,O=C(O)c1cc(=O)c2ccccc2[nH]1 [Kynurenic acid],3.58
15,O=c1[nH]c2c(c(=O)n1C1CCCCC1)CCC2 [Lenacil],5.48
16,CC(C)CCCCCCCCCCCCCCCC(=O)O [17-Methylstearic acid],6.7
17,O=C(O)C=C(CC(=O)O)C(=O)O [cis-Aconitic acid],0.818
18,CC(C)CCCC(C)CCCC(C)CCCC(C)CC(=O)O (stereo not drawn) [Phytanic acid],6.68
19,O=c1ccn(C2CC(O)C(COP(=O)(O)O)O2)c(=O)[nH]1 (stereo not drawn) [DEOXYURIDINE-MONOPHOSPHATE],0.695
20,O=C(Nc1ccc(F)cc1F)c1cccnc1Oc1cccc(C(F)(F)F)c1 [Diflufenican],6.33
21,CC(CC(=O)O)CC(=O)O [3-Methylglutaric acid],2.43
22,O=C(O)Cc1cc(O)ccc1O [HOMOGENTISATE],1.47
23,CNC(=N[N+](=O)[O-])NCC1CCOC1 (stereo not drawn) [Dinotefuran],3.16

row,SMILES,LC retention time [min]
1,CC12CCC(=O)C=C1CCC1C2C(O)CC2(C)C(C(=O)CO)CCC12 (stereo not drawn) [Corticosterone],6.21
2,"O=C(O)c1ccc(C(=O)O)o1 [2,5-Furandicarboxylic acid]",1.51
3,NCC(=O)CCC(=O)O [5-AMINOLEVULINATE],1.05
4,O=C(O)C(O)c1cccc(O)c1 (stereo not drawn) [3-Hydroxymandelic acid],1.52
5,O=C(O)CC(O)C(=O)O (stereo not drawn) [MALATE],0.676
6,NCCc1ccc(O)c(O)c1 [DOPAMINE],0.724
7,CC1(C)CCC(=Cc2ccc(Cl)cc2)C1(O)Cn1cncn1 (stereo not drawn) [Triticonazole],5.93
8,O=c1ccn(C2CC(O)C(CO)O2)c(=O)[nH]1 (stereo not drawn) [DEOXYURIDINE],1.22
9,O=Cc1c[nH]c2ccccc12 [Indole-3-carboxaldehyde],4.24
10,N#CCNC(=O)c1cnccc1C(F)(F)F [Flonicamid],3.4
11,CCCCCCCCCC=CC(=O)OC(CC(=O)[O-])C[N+](C)(C)C [trans-2-Dodecenoyl-L-carnitine],5.46
12,CC(=O)N[C@@H](CC(=O)O)C(=O)O [N-Acetyl-L-aspartic acid],0.77
13,CC(=O)NC(CC(C)C)C(=O)O (stereo not drawn) [N-ACETYLLEUCINE],3.63
14,O=Cc1ccccc1 [BENZALDEHYDE],2.98
15,N[C@@H](Cc1ccc(O)c([N+](=O)[O-])c1)C(=O)O [3-NITRO-L-TYROSINE],1.92
16,Nc1nc2c(ncn2C2CC(O)C(CO)O2)c(=O)[nH]1 (stereo not drawn) [DEOXYGUANOSINE],1.59
17,CC(CCC(=O)NCC(=O)O)C1CCC2C3CCC4CC(O)CCC4(C)C3CCC12C (stereo not drawn) [Glycolithocholic acid],6.37
18,"CCC=CCC=CCC=CCC=CC/C=C\CCCC(=O)O [cis-5,8,11,14,17-Eicosapentaenoic acid]",6.56
19,COP(=O)(NC(C)=O)SC (stereo not drawn) [Acephate],2.34
20,N[C@@H](Cc1ccc(O)c(O)c1)C(=O)O [L-DOPA],0.702
21,CCCCCCCCCCCCCCCC(=O)O [Palmitic acid],6.54
22,CCCCCC=CCC=CCC=CCCCCC(=O)O [γ-Linolenic acid],6.54
